In patent US12281122B1, “PI3K inhibitors” (Cogent Biosciences, Inc., priority 2023, dated 2025):

How the values were obtained:
PI3Kα = PI3Kα (Homo sapiens, UniProt P42336); test: PI3Kα enzyme assay (Transcreener ADP2 TR-FRET Red Assay); type: biochemical; settings: purified recombinant full-length protein; 2 hours pre-incubation with compound; read-out: PI3Kα WT IC50
Protocol: (§1) Activity against PI3Kα and PI3Kα H1047R enzymes were determined in biochemical assays using purified recombinant full-length proteins with the Transcreener ADP^2 TR-FRET Red Assay from Bellbrook Labs. (Catalogue number 3011-10K). Test compounds were dissolved in DMSO and were tested in 11 point 1:3 serial dilutions, typical final concentration range from 50,000 nM to 0.85 nM. Enzymes were pre-incubated with compounds for 2 hours at room temperature prior to initiating the reactions. Assays were initiated with a 2×ATP/PI(4,5)P2 diC8 substrate mixture. After 60 minutes at room temperature, the reactions were quenched with detection reagent and incubated for an additional 60 minutes at room temperature. The plates were read using a multimode reader and the emission ratio of 665 nm to 615 nm was determined. This ratio was converted to percent of control (POC). [1-(high control-sample signal)/(high control-low control)]*100. Wells without compound were used to determine high control values and wells without enzyme were used to determine low control values. The POC values were fit using a four-parameter logistic model and the value where the fit curve was equal to 50 POC was reported as the IC50 using the Signals VitroVivo software package (PerkinElmer). Final assay conditions were: 40 mM HEPES pH 7.5, 20 mM NaCl, 25 mM MgCl2, 0.01% Triton X-100. The enzyme source, catalogue number, final enzyme concentration, and final ATP and PI(4,5)P2 diC8 concentration can be found in the table E10 below.

PI3Kα H1047R = PI3Kα H1047R (Homo sapiens, UniProt P42336, H1047R); test: PI3Kα H1047R enzyme assay (Transcreener ADP2 TR-FRET Red Assay); type: biochemical; settings: purified recombinant full-length protein; 2 hours pre-incubation with compound
PI3Kα H1047R, sequence (P42336 whole entry H1047R): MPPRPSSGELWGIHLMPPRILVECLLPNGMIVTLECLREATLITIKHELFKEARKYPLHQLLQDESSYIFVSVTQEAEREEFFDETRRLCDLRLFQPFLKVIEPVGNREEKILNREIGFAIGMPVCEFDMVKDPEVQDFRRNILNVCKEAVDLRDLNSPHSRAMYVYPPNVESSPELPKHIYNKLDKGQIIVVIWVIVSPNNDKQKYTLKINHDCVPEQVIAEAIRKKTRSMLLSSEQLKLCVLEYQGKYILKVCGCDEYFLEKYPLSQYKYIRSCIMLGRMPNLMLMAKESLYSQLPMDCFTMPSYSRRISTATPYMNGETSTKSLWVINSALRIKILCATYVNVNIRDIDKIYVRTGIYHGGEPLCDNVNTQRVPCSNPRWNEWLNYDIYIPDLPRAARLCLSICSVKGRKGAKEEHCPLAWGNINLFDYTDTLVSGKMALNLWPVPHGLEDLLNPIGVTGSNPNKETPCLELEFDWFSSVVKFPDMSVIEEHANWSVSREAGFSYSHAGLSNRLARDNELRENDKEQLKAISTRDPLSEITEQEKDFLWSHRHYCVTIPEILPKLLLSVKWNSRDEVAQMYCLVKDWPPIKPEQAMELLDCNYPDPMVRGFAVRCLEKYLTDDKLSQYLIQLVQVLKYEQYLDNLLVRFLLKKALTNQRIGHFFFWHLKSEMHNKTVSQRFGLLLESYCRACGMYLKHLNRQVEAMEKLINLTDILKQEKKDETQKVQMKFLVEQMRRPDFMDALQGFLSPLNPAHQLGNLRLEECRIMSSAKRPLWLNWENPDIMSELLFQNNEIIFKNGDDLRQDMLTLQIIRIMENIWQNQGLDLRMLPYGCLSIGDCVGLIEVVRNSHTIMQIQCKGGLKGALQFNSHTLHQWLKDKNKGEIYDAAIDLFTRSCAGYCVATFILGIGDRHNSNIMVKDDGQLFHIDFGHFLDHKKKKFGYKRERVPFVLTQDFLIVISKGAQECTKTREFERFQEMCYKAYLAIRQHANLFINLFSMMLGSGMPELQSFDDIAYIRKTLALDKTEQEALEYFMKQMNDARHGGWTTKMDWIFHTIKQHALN
PI3Kα H1047R, sequence (P27986 2-724 partner): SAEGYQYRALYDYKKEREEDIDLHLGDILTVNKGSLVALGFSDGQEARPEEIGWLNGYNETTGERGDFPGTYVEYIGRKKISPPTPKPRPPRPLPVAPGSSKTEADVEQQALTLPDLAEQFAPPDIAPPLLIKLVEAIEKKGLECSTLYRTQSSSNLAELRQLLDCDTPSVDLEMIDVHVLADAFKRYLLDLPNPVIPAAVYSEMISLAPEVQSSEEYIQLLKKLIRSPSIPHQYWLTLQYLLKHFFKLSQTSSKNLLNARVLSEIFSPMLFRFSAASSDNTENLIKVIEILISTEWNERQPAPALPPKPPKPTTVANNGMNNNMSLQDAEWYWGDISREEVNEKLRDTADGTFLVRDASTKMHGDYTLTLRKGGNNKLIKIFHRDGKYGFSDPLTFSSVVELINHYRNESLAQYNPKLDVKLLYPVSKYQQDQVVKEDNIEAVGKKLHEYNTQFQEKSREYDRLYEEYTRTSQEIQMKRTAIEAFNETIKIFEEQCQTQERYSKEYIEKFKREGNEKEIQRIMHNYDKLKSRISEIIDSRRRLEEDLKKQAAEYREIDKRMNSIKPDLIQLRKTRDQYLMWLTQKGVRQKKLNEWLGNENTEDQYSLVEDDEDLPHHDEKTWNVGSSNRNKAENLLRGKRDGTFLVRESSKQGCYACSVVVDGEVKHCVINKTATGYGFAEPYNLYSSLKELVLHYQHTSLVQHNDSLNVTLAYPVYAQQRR
Protocol: as §1

[1] = test system: T47D (PI3Kα-H1047R) cell line; test: HTRF phospho-AKT(S473) cell assay in T47D cells; type: cell-based, human
Method in brief: (§2)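 Cells plated overnight (T47D in RPMI/10% FBS/0.2 units/mL insulin; SKBR3 in McCoy's 5A/10% FBS), then given 12-point 1:3 compound series (top 5 μM T47D, 10 μM SKBR3; ≤0.5% DMSO) for 2 h at 37° C. SKBR3 stimulated with 70 ng/ml PDGF-BB for final 15 min. Lysate pAKT(S473) by HTRF; IC50 calculated.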

[2] = test system: SKBR3 (PI3Kα-Wild Type) cell line; test: HTRF phospho-AKT(S473) cell assay in SKBR3 cells; type: cell-based, human
Method in brief: as §2

[3] = Homo sapiens; T47D (PI3Kα-H1047R) cells, HTRF phospho-AKT(S473), 2 hours compound incubation
[4] = Homo sapiens, SK-BR-3; SKBR3 (PI3Kα-Wild Type) cells, HTRF phospho-AKT(S473), 2 hours compound incubation, PDGF-BB stimulated
[5] = Homo sapiens; HTRF phospho-AKT(S473), T47D (PI3Kα-H1047R) cells, 2 hours compound incubation
[6] = Homo sapiens, SK-BR-3; HTRF phospho-AKT(S473), SKBR3 (PI3Kα-Wild Type) cells, 2 hours compound incubation, PDGF-BB stimulated

PI3Kα, sequence (P42336 whole entry): as the sequence (P42336 whole entry H1047R) above, with R1047H counted along it
PI3Kα, sequence (P27986 2-724 partner): as the sequence (P27986 2-724 partner) above

SMILES | IC50 (PI3Kα) | IC50 (PI3Kα H1047R) | IC50 [1, 3] | IC50 [2, 4] | IC50 [1, 5] | IC50 [2, 6]
Cc1cc([C@@H](C)Nc2ccc(Cl)nc2C(=O)NS(C)(=O)=O)c2nc(N(C)C34CC(C3)C4)n(C)c(=O)c2c1 [Compound 13, (R)-3-((1-(2-(bicyclo[1.1.1]pentan-1-yl(methyl)amino)-3,6-dimethyl-4-oxo-3,4-dihydroquinazolin-8-yl)ethyl)amino)-6-chloro-N-(methylsulfonyl) picolinamide] | ≥ 1000 nM | 500 to 1000 nM | 250 to 500 nM | 1000 to 5000 nM |  | 
CC(=O)NS(=O)(=O)c1nc(Cl)ccc1N[C@H](C)c1cc(C)cc2c(=O)n(C)c(N3CCC(F)(F)CC3)nc12 [Compound 78, (R)-N-((6-chloro-3-((1-(2-(4,4-difluoropiperidin-1-yl)-3,6-dimethyl-4-oxo-3,4-dihydroquinazolin-8-yl)ethyl)amino)pyridin-2-yl)sulfonyl)acetamide] | ≥ 1000 nM | 500 to 1000 nM | 250 to 500 nM | 1000 to 5000 nM |  | 
Cc1cc([C@@H](C)Nc2ccc(Cl)nc2C(=O)NS(C)(=O)=O)c2nc(N3CCOCC3)n(C)c(=O)c2c1 [Compound 5, (R)-6-chloro-3-((1-(3,6-dimethyl-2-morpholino-4-oxo-3,4-dihydroquinazolin-8-yl)ethyl)amino)-N-(methylsulfonyl) picolinamide] | ≥ 1000 nM | 500 to 1000 nM | < 250 nM | 1000 to 5000 nM |  | 
Cc1cc([C@@H](C)Nc2ccc(Cl)nc2C(=O)NS(C)(=O)=O)c2nc(N(C)CC3(C(F)(F)F)CC3)n(C)c(=O)c2c1 [Compound 43, (R)-6-chloro-3-((1-(3,6-dimethyl-2-(methyl((1-(trifluoromethyl)cyclopropyl)methyl)amino)-4-oxo-3,4-dihydroquinazolin-8-yl)ethyl)amino)-N-(methylsulfonyl) picolinamide] | ≥ 1000 nM | ≥ 1000 nM |  |  |  | 
Cc1cc([C@@H](C)Nc2ccc(Cl)nc2C(=O)NS(C)(=O)=O)c2nc(N3C[C@@H]4[C@H](C3)[C@H]4c3nn(C)cc3F)n(C)c(=O)c2c1 [Compound 391, 6-chloro-3-(((R)-1-(2-((1R,5S,6R)-6-(4-fluoro-1-methyl-1H-pyrazol-3-yl)-3-azabicyclo[3.1.0]hexan-3-yl)-3,6-dimethyl-4-oxo-3,4-dihydroquinazolin-8-yl)ethyl)amino)-N-(methylsulfonyl) picolinamide] |  |  | 250 to 500 nM | 1000 to 5000 nM |  | 
Cc1cc([C@@H](C)Nc2ccc(Cl)nc2C(=O)NS(C)(=O)=O)c2nc(N3C[C@@H]4[C@H](C3)[C@H]4c3cc4n(n3)CCO4)n(C)c(=O)c2c1 [Compound 520, 6-chloro-3-(((R)-1-(2-((1R,5S,6R)-6-(2,3-dihydropyrazolo[5,1-b]oxazol-6-yl)-3-azabicyclo[3.1.0]hexan-3-yl)-3,6-dimethyl-4-oxo-3,4-dihydroquinazolin-8-yl)ethyl)amino)-N-(methylsulfonyl) picolinamide] |  |  |  |  | < 250 nM | 1000 to 5000 nM
Cc1cc([C@@H](C)Nc2ccc(Cl)nc2C(=O)NS(C)(=O)=O)c2nc(N3C[C@@H]4[C@H](C3)[C@H]4c3nc(C)n(C(F)F)n3)n(C)c(=O)c2c1 [Compound 642, 6-chloro-3-(((R)-1-(2-((1R,5S,6R)-6-(1-(difluoromethyl)-5-methyl-1H-1,2,4-triazol-3-yl)-3-azabicyclo[3.1.0]hexan-3-yl)-3,6-dimethyl-4-oxo-3,4-dihydroquinazolin-8-yl)ethyl)amino)-N-(methylsulfonyl) picolinamide] |  |  |  |  | 250 to 500 nM | ≥ 5000 nM
Cc1cc([C@@H](C)Nc2ccc(Cl)nc2C(=O)NS(C)(=O)=O)c2nc(N3CCC(n4cc(C#N)cn4)CC3)n(C)c(=O)c2c1 [Compound 686, (R)-6-chloro-3-((1-(2-(4-(4-cyano-1H-pyrazol-1-yl)piperidin-1-yl)-3,6-dimethyl-4-oxo-3,4-dihydroquinazolin-8-yl)ethyl)amino)-N-(methylsulfonyl) picolinamide] |  |  |  |  | < 250 nM | 250 to 500 nM
COc1cnn(C2CCN(c3nc4c([C@@H](C)Nc5ccc(Cl)nc5C(=O)NS(C)(=O)=O)cc(C)cc4c(=O)n3C)CC2)c1 [Compound 311, (R)-6-chloro-3-((1-(2-(4-(4-methoxy-1H-pyrazol-1-yl)piperidin-1-yl)-3,6-dimethyl-4-oxo-3,4-dihydroquinazolin-8-yl)ethyl)amino)-N-(methylsulfonyl) picolinamide] |  |  | < 250 nM | 1000 to 5000 nM |  | 
COC(=O)NS(=O)(=O)c1nc(Cl)ccc1N[C@H](C)c1cc(C)cc2c(=O)n(C)c(N3Cc4ccc(F)cc4C3)nc12 [Compound 131, methyl (R)-((6-chloro-3-((1-(2-(5-fluoroisoindolin-2-yl)-3,6-dimethyl-4-oxo-3,4-dihydroquinazolin-yl)ethyl)amino)pyridin-2-yl)sulfonyl) carbamate] |  |  | 500 to 1000 nM | ≥ 5000 nM |  | 
Cc1cc([C@@H](C)Nc2ccc(Cl)nc2C(=O)NS(C)(=O)=O)c2nc(N3CC[C@@H](c4ccccc4)C3)n(C)c(=O)c2c1 [Compound 687, 6-chloro-3-(((R)-1-(3,6-dimethyl-4-oxo-2-((S)-3-phenylpyrrolidin-1-yl)-3,4-dihydroquinazolin-8-yl)ethyl)amino)-N-(methylsulfonyl) picolinamide] |  |  |  |  | 250 to 500 nM | ≥ 5000 nM
CC(=O)N1CC2CCC(C1)N2c1ccc(-c2nc3c([C@@H](C)Nc4ccc(Cl)nc4C(=O)NS(C)(=O)=O)cc(C)cc3c(=O)n2C)cc1F [Compound 801, 3-(((1R)-1-(2-(4-(3-acetyl-3,8-diazabicyclo[3.2.1]octan-8-yl)-3-fluorophenyl)-3,6-dimethyl-4-oxo-3,4-dihydroquinazolin-8-yl)ethyl)amino)-6-chloro-N-(methylsulfonyl) picolinamide] |  |  |  |  | < 250 nM | ≥ 5000 nM
CCn1c(N2C[C@@H]3[C@H](C2)[C@H]3c2cn(C)nn2)nc2c([C@@H](C)Nc3ccc(Cl)nc3C(=O)NS(C)(=O)=O)cc(C)cc2c1=O [Compound 622, 6-chloro-3-(((R)-1-(3-ethyl-6-methyl-2-((1R,5S,6R)-6-(1-methyl-1H-1,2,3-triazol-4-yl)-3-azabicyclo[3.1.0]hexan-3-yl)-4-oxo-3,4-dihydroquinazolin-8-yl)ethyl)amino)-N-(methylsulfonyl) picolinamide] |  |  |  |  | < 250 nM | 1000 to 5000 nM
Cc1cc([C@@H](C)Nc2ccc(Cl)nc2C(=O)NS(C)(=O)=O)c2nc(N3CCC[C@@H](c4cnn(C)c4)C3)n(C)c(=O)c2c1 (relative stereo) [Compound 202, 6-chloro-3-(((R)-1-(3,6-dimethyl-2-((R*)-3-(1-methyl-1H-pyrazol-4-yl)piperidin-1-yl)-4-oxo-3,4-dihydroquinazolin-8-yl)ethyl)amino)-N-(methylsulfonyl) picolinamide] |  |  | < 250 nM | 1000 to 5000 nM |  | 
Cc1cc([C@@H](C)Nc2ccc(Cl)nc2C(=O)NS(C)(=O)=O)c2nc(N3CCC(c4ccn(C(C)C)n4)CC3)n(C)c(=O)c2c1 [Compound 249, (R)-6-chloro-3-((1-(2-(4-(1-isopropyl-1H-pyrazol-3-yl)piperidin-1-yl)-3,6-dimethyl-4-oxo-3,4-dihydroquinazolin-8-yl)ethyl)amino)-N-(methylsulfonyl) picolinamide] |  |  | < 250 nM | 1000 to 5000 nM |  | 
Cc1cc([C@@H](C)Nc2ccc(Cl)nc2C(=O)NS(C)(=O)=O)c2nc(N3CCC(c4nc(C(F)F)n(C)n4)CC3)n(C)c(=O)c2c1 [Compound 434, (R)-6-chloro-3-((1-(2-(4-(5-(difluoromethyl)-1-methyl-1H-1,2,4-triazol-3-yl)piperidin-1-yl)-3,6-dimethyl-4-oxo-3,4-dihydroquinazolin-8-yl)ethyl)amino)-N-(methylsulfonyl) picolinamide] |  |  | 500 to 1000 nM | ≥ 5000 nM |  | 
COC1CCC2(CC1)CCN(c1nc3c([C@@H](C)Nc4ccc(Cl)nc4C(=O)NS(C)(=O)=O)cc(C)cc3c(=O)n1C)CC2 [Compound 282, (R)-6-chloro-3-((1-(2-(9-methoxy-3-azaspiro[5.5]undecan-3-yl)-3,6-dimethyl-4-oxo-3,4-dihydroquinazolin-8-yl)ethyl)amino)-N-(methylsulfonyl) picolinamide] |  |  | < 250 nM | ≥ 5000 nM |  | 
